In PubChem BioAssay (NCI):
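Briefly, cells in 96-well plates were exposed to five compound concentrations for 48 h, and endpoints were estimated by linear interpolation. At the GI50, growth is halved. TGI is the concentration that stops growth completely.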 Where a SMILES comes first, the peptide text is derived from it. Bridges are numbered along the chain shown (N, C = ends). The star is where a group is joined. Cbz = O=C(OCc1ccccc1)*

What was measured:
Test in all cases: growth of human tumour cells (NCI), 48 h
[1] = system: SR leukemia
[2] = system: HL-60(TB) leukemia
[3] = system: OVCAR-3 ovarian
[4] = system: COLO 205 colon
[5] = system: MDA-MB-231 breast
[6] = system: CCRF-CEM leukemia
[7] = system: RPMI-8226 leukemia
[8] = system: SNB-75 CNS
[9] = system: HOP-92 NSCLC
[10] = system: LOX IMVI melanoma
[11] = system: TK-10 renal

SMILES: Cc1nn(C)c2nc3ccc(Cl)cc3c(-c3ccccc3)c12
- TGI [1]: > 100 µM
- TGI [2]: > 100 µM
- TGI [3]: > 100 µM
- TGI [4]: > 100 µM
- TGI [5]: > 100 µM
- TGI [6]: > 100 µM
- TGI [7]: > 100 µM
- TGI [8]: > 100 µM
- TGI [9]: > 100 µM

SMILES: S=C(N/N=C\c1ccccn1)N(Cc1ccccn1)Cc1ccccn1
- TGI [1]: > 39 µM
- TGI [2]: > 100 µM
- TGI [3]: > 48.7 µM
- TGI [10]: 12.6 µM
- TGI [11]: 17.6 µM
- TGI [4]: 23.9 µM
- TGI [5]: > 49 µM
- TGI [6]: > 100 µM
- TGI [7]: > 38.8 µM
- TGI [8]: 20.2 µM
- TGI [9]: 11.4 µM

SMILES: N#Cc1c(Nc2nc3ccccc3s2)c2ccccc2n2c1nc1ccccc12
- TGI [1]: > 100 µM
- TGI [2]: > 100 µM
- TGI [3]: > 100 µM
- TGI [10]: > 100 µM
- TGI [11]: > 100 µM
- TGI [4]: > 100 µM
- TGI [5]: > 100 µM
- TGI [7]: > 100 µM
- TGI [8]: 81 µM
- TGI [9]: > 100 µM

SMILES: COc1cc(/C=N\NC(=O)C[N+](C)(C)C)cc(OC)c1OC
- TGI [1]: > 10 µM
- TGI [2]: > 10 µM
- TGI [3]: > 10 µM
- TGI [10]: > 10 µM
- TGI [11]: > 10 µM
- TGI [4]: > 10 µM
- TGI [5]: > 10 µM
- TGI [6]: > 10 µM
- TGI [7]: > 10 µM
- TGI [8]: > 10 µM
- TGI [9]: > 10 µM

SMILES: COC(=O)C1CCCCNC(=O)CCC(NC(=O)OCc2ccccc2)C(=O)N1 (stereo not drawn) (Cbz-Glu-Lys-OMe; lactam 1-2; configuration not given here)
- TGI [1]: > 100 µM
- TGI [2]: > 100 µM
- TGI [3]: > 100 µM
- TGI [10]: > 100 µM
- TGI [11]: > 100 µM
- TGI [4]: > 100 µM
- TGI [5]: > 100 µM
- TGI [6]: > 100 µM
- TGI [7]: > 100 µM
- TGI [8]: > 100 µM
- TGI [9]: 95.1 µM

SMILES: Cn1c2c(c3ccccc31)CCN1C(=O)C3SC21C1C(=O)N(c2ccccc2)C(=O)C31 (centres undefined)
- TGI [1]: > 100 µM
- TGI [2]: > 77.3 µM
- TGI [3]: > 100 µM
- TGI [10]: > 100 µM
- TGI [11]: > 79.1 µM
- TGI [4]: > 100 µM
- TGI [5]: > 100 µM
- GI50 [6]: 53.4 µM
- TGI [6]: > 100 µM
- TGI [7]: > 100 µM
- GI50 [8]: 13.4 µM
- TGI [8]: > 100 µM
- TGI [9]: > 86.7 µM

SMILES: O=c1[nH]c2cc3cccnc3c(Cl)c2nc1CBr
- TGI [1]: 73.3 µM
- TGI [2]: 55.2 µM
- TGI [3]: 35.5 µM
- TGI [10]: 31.1 µM
- TGI [11]: 61.8 µM
- TGI [4]: 26.8 µM
- TGI [5]: 34.4 µM
- TGI [6]: 31.1 µM
- TGI [7]: 26.3 µM
- TGI [9]: 35.2 µM

SMILES: CCn1c2ccc(O)c(C(=O)OC)c2c2cc3ccccc3c(O)c21
- TGI [1]: 57.6 µM
- TGI [2]: 60 µM
- TGI [3]: 47.3 µM
- TGI [11]: 55.7 µM
- TGI [4]: 29.5 µM
- TGI [5]: > 100 µM
- TGI [6]: 70 µM
- TGI [7]: 33.3 µM
- TGI [9]: 21.3 µM

SMILES: Clc1nc(Nc2nc3ccccc3[nH]2)nc(Cl)c1Cc1ccccc1
- TGI [1]: > 100 µM
- TGI [2]: > 100 µM
- TGI [11]: > 100 µM
- TGI [4]: > 100 µM
- TGI [5]: > 100 µM
- TGI [6]: > 100 µM
- TGI [7]: > 100 µM
- TGI [8]: > 100 µM
- TGI [9]: 70.9 µM

SMILES: O/N=C1\CCc2nonc2\C1=N/Nc1ccccc1
- TGI [1]: > 100 µM
- TGI [2]: > 100 µM
- TGI [3]: > 100 µM
- TGI [10]: > 100 µM
- TGI [11]: > 100 µM
- TGI [4]: > 100 µM
- TGI [5]: > 100 µM
- TGI [6]: > 100 µM
- TGI [7]: > 100 µM
- TGI [8]: > 100 µM
- TGI [9]: > 100 µM
